Data on one compound can be found in US8436047B2, “Preventive or ameliorating agent for liver disease involving hepatopathy” (Suntory Holdings Limited, priority 2004, dated 2013).

The test system of this experiment is hepatopathy induced by galactosamine (GalN/LPS). The experiment can be described thus: Evaluation of 5,8,11-eicosatrienoic acid ethyl ester in an animal model of hepatopathy: serum GOT after GalN/LPS. The experiment is classed as in vivo. The following applies: male ddY mice, 10 mg/kg orally for one week, then GalN 800 mg/kg / LPS 25 μg/kg i.p., blood six hours after; control group 1024±94 IU/L. As for the experimental part:
Four-week-old male ddY mice were orally given 10 mg/kg of 5,8,11-eicosatrienoic acid ethyl ester (mead acid) purified from the lipid SUNTGM17 prepared in Reference Example 1 for one week, and then they were intraperitoneally given physiological saline in which D-galactosamine and lipopolysaccharide were dissolved to 800 mg/kg and 25 μg/kg and mixed (GalN/LPS). Six hours after the GalN/LPS administration, blood was drawn, serum was separated, and GPT and GOT activities in the serum were determined, which confirmed that the GOT activity was 1024±94 IU/L in the control diet group, whereas it was 413±37 IU/L in the mead acid diet group, indicating a significant suppression of hepatopathy.

Turning to `CCCCCCCCC=CCC=CCC=CCCCC(=O)OCC` [5,8,11-eicosatrienoic acid ethyl ester], the “GOT activity in the serum” value was 413±37 IU/L.
